SMILES strings stand for the structures.

Data set [1] concerns different types of solid tumours. In words: Viability of different types of solid tumour cell lines. The format is cell-based. The conditions noted are these: HCC1954, A375P, HCT116, HT1080, pancreatic cancer lines 185 and 354. From the text:
We studied the effect of I3C alone or in combination with different drugs commonly used in the clinic for the targeted treatment of solid tumours of various origins. We used the ductal breast cancer line HCC1954 and the drug Lapatinib, the melanoma line A375P and the drug Vemurafenib, the colorectal cancer line HCT116 and the drug 5-fluorouracil, the sarcoma line HT1080 and the experimental drug ADC, and two primary pancreatic cancer lines 185 and 354 and the drug Abraxane. Results obtained (Fig. 11) shown that I3C has no effect on different types of solid tumours.

For data set [2] the following is noted: in blood; cited from earlier work.

For `OCc1c[nH]c2ccccc12` [I3C, (1H-indol-3-yl)methanol], in data set [1], the “effect on solid tumours (viability)” value was “no effect”. Besides, in data set [2], the bioavailability is recorded as 22 µM.

The record behind these values is patent EP4309654A1, “INDOLE-3-CARBINOL IN COMBINATION WITH IBRUTINIB FOR THE TREATMENT OF B LYMPHOID NEOPLASMS” (Consejo Superior de Investigaciones Científicas (CSIC), priority 2022, dated 2024).
